Some test systems named below: A498; A549; BT-549; CAKI-1; DU-145; HCT-15; HL-60; HOP-62; MCF7; MDA-N; Malme-3M; NCI-H460; OVCAR-3; SF-268; SK-OV-3; SW-620; UACC-257; UO-31; UACC-62.
What all share (assay): inhibition of tumour cell growth, NCI panel, 48 h

11 compounds from ChEMBL document CHEMBL1201862, “PubChem BioAssay data set” (2004) can be followed below.

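Tested at 5 concentrations; 48 h exposure; 96-well plates; endpoints linearly interpolated, else capped at highest concentration. GI50 marks 50% less growth.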 The source made the active and inactive calls. No stated cut-off is given here; in the data, active = GI50 up to about 1.1 µM and inactive = higher.

For the compound `COC(=O)c1ccc(-n2c(C)nc(=O)c(-c3ccccc3)c2C)cc1`, the GI50 is > 100 µM (inactive) in the assay on A498; > 100 µM (inactive) in the assay with A549; > 100 µM (inactive) in the assay on BT-549; > 100 µM (inactive) with CAKI-1; > 100 µM (inactive) in the assay with DU-145; over 100 µM in the assay on HCT-15. In addition, the GI50 in the assay with HL-60 was > 100 µM (inactive); in the assay with HOP-62, > 100 µM (inactive); in the assay with MCF7 it was > 100 µM (inactive); in the assay with MDA-N, > 10 µM (inactive); in the assay with Malme-3M it was > 100 µM (inactive); with NCI-H460 it was > 100 µM (inactive). Besides, the GI50 with OVCAR-3, in the assay with SF-268, with SK-OV-3, in the assay with SW-620, in the assay on UACC-257 and in the assay with UO-31 was > 100 µM (inactive) in each case.

As for `NP1(Oc2ccc(F)cc2)=NP(N)(Oc2ccc(F)cc2)=NP(Oc2ccc(F)cc2)(Oc2ccc(F)cc2)=N1` (stereo not drawn), the GI50 in the assay on A498 was < 0.01 µM (active); in the assay with A549 it was 3.99 µM (inactive); with BT-549 it was 2.23 µM (inactive); in the assay on CAKI-1, 10.2 µM (inactive); with DU-145, 7.52 µM (inactive); in the assay with HCT-15 it was 3.81 µM. In addition, the GI50 in the assay on HL-60 is 5.09 µM (inactive); in the assay on HOP-62, 9.68 µM (inactive); in the assay on MCF7 it was 2.94 µM (inactive); with MDA-N it was 6.47 µM (inactive); in the assay on Malme-3M it was 5.27 µM (inactive); in the assay with NCI-H460, 3.7 µM (inactive). For the same compound, the GI50 was 4.68 µM (inactive) in the assay on OVCAR-3; 13.8 µM (inactive) with SF-268; 14.2 µM (inactive) with SK-OV-3; 12.4 µM (inactive) in the assay on SW-620; 12.3 µM (inactive) in the assay on UACC-257; 4.06 µM (inactive) with UO-31.

For `Cc1cccc(-c2cccc(COCc3cccc(-c4cccc(CO)n4)n3)n2)n1`, the GI50 with A498 was > 50 µM (inactive); in the assay with A549, > 50 µM (inactive); in the assay with BT-549, 19.3 µM (inactive); in the assay on CAKI-1, 34.4 µM (inactive); in the assay on DU-145, > 50 µM (inactive); with HCT-15, 35.2 µM. The GI50 with HL-60 is 8.28 µM (inactive); with HOP-62 it was > 50 µM (inactive); with MCF7, 36.2 µM (inactive); with MDA-N, > 50 µM (inactive); in the assay on NCI-H460, 43.8 µM (inactive); with OVCAR-3, 3.7 µM (inactive). For the same compound, the GI50 was > 50 µM (inactive) in the assay with SF-268; > 50 µM (inactive) in the assay with SK-OV-3; > 50 µM (inactive) in the assay on SW-620; 12.8 µM (inactive) with UACC-257; > 50 µM (inactive) in the assay with UACC-62; > 50 µM (inactive) in the assay on UO-31.

On to `COC(=O)CC(CNC(=O)OCc1ccccc1)OCc1ccc(OC)cc1` (stereo not drawn), for which the GI50 was > 100 µM (inactive) with A498; > 100 µM (inactive) with A549; 34 µM (inactive) with BT-549; > 100 µM (inactive) in the assay on CAKI-1; > 100 µM (inactive) in the assay on DU-145; over 100 µM in the assay with HCT-15. Besides, the GI50 in the assay with HL-60, in the assay on MCF7, in the assay on MDA-N, with Malme-3M, in the assay on NCI-H460 and with OVCAR-3 was > 100 µM (inactive) in each case. Moreover, the GI50 in the assay with SK-OV-3 is > 100 µM (inactive); in the assay on SW-620 it was > 100 µM (inactive); in the assay with UACC-257, > 100 µM (inactive); with UACC-62 it was > 100 µM (inactive); with UO-31, 50.6 µM (inactive).

As to `COC(=O)c1sc2c(c1C(=O)OC)/C(=N/c1ccc(OC)cc1)S/C2=N\c1ccc(OC)cc1`, the GI50 was 1.65 µM (inactive) in the assay on A498; 1.31 µM (inactive) in the assay with A549; 1.54 µM (inactive) in the assay on BT-549; 2.05 µM (inactive) in the assay with CAKI-1; 0.525 µM (active) in the assay on DU-145; 0.452 µM in the assay with HCT-15. Moreover, the GI50 in the assay on HL-60 was 0.245 µM (active); with HOP-62, 0.789 µM (active); in the assay with MCF7, 1.08 µM (active); in the assay with MDA-N, 1.15 µM (inactive); in the assay with Malme-3M it was 1.74 µM (inactive); in the assay with NCI-H460, 1.33 µM (inactive). The GI50 with OVCAR-3 is 0.611 µM (active); in the assay with SF-268 it was 1.55 µM (inactive); in the assay with SK-OV-3, 1.69 µM (inactive); in the assay with SW-620 it was 0.224 µM (active); in the assay with UACC-257 it was 1.32 µM (inactive); with UACC-62, 1.45 µM (inactive). Also, the GI50 with UO-31 was 0.865 µM (active).

Regarding `Cc1ccc2c(n1)C(=O)c1ccccc1C2=O`, the GI50 is 31.6 µM (inactive) with A498; 21.2 µM (inactive) in the assay on A549; 32.4 µM (inactive) in the assay with BT-549; 39.2 µM (inactive) in the assay on CAKI-1; 17.3 µM (inactive) in the assay on DU-145; 25.8 µM with HCT-15. The GI50 in the assay on HL-60 is 15.4 µM (inactive); with HOP-62 it was 38 µM (inactive); in the assay on MCF7 it was 17.3 µM (inactive); with MDA-N, > 45.6 µM (inactive); in the assay on Malme-3M, 9.35 µM (inactive); in the assay on NCI-H460, 15.8 µM (inactive). For the same compound, the GI50 with OVCAR-3 is 3.53 µM (inactive); in the assay with SF-268 it was 31.3 µM (inactive); with SK-OV-3, 77.4 µM (inactive); with SW-620, 31.7 µM (inactive); in the assay with UACC-257, 19.1 µM (inactive); in the assay on UACC-62, 20.5 µM (inactive). The GI50 in the assay on UO-31 was 32.5 µM (inactive).

Turning to `CCc1ncnc2cc(OCC3CO3)c(OC)cc12` (stereo not drawn), the GI50 was 21.3 µM (inactive) in the assay on A498; 4.49 µM (inactive) in the assay on A549; 3.95 µM (inactive) in the assay with BT-549; 5.06 µM (inactive) with CAKI-1; 4.15 µM (inactive) in the assay with DU-145; 3.09 µM in the assay with HCT-15. The GI50 was 0.889 µM (active) in the assay on HL-60; 3.18 µM (inactive) in the assay with HOP-62; 0.557 µM (active) in the assay on MCF7; 5.94 µM (inactive) in the assay on MDA-N; 12.3 µM (inactive) in the assay with Malme-3M; 5.53 µM (inactive) in the assay with NCI-H460. In addition, the GI50 was 11.1 µM (inactive) with OVCAR-3; 2.64 µM (inactive) in the assay with SF-268; 22.9 µM (inactive) in the assay with SK-OV-3; 0.735 µM (active) with SW-620; 13.6 µM (inactive) in the assay with UACC-257; 2.86 µM (inactive) in the assay on UACC-62. Besides, the GI50 in the assay on UO-31 was 2.03 µM (inactive).

For the compound `CCN(CC)C(=S)Nc1ccc(-c2cc3ccc(O)cc3oc2=O)cc1`, the GI50 with A498 was 20.8 µM (inactive); in the assay on A549 it was 44.9 µM (inactive); in the assay on BT-549 it was 26.1 µM (inactive); in the assay on CAKI-1 it was 31.2 µM (inactive); in the assay with DU-145, 29.8 µM (inactive); in the assay with HCT-15, 19.7 µM. Moreover, the GI50 in the assay with HL-60 is 3.76 µM (inactive); with MCF7, > 10 µM (inactive); in the assay with MDA-N, 24.8 µM (inactive); in the assay with Malme-3M, 17 µM (inactive); in the assay with NCI-H460, 31.4 µM (inactive); with OVCAR-3, 17.4 µM (inactive). Further, the GI50 is 32.1 µM (inactive) in the assay on SF-268; 44.1 µM (inactive) with SK-OV-3; 34 µM (inactive) in the assay with SW-620; 22 µM (inactive) in the assay with UACC-257; 32.4 µM (inactive) in the assay on UACC-62; 17.5 µM (inactive) with UO-31.

As to `N#CCCN(CCC#N)c1ccc(/C=C2\N=C(c3ccccc3)N(c3ccccn3)C2=O)cc1`, the GI50 in the assay with A498 was > 100 µM (inactive); in the assay with A549, > 100 µM (inactive); in the assay with BT-549, > 100 µM (inactive); in the assay on CAKI-1, > 100 µM (inactive); in the assay with DU-145, > 100 µM (inactive); with HCT-15 it was over 100 µM. The GI50 in the assay on HL-60, in the assay on HOP-62, in the assay on MCF7, in the assay on MDA-N, in the assay on Malme-3M and in the assay on NCI-H460 was > 100 µM (inactive) each time. The GI50 in the assay with OVCAR-3, in the assay with SF-268, in the assay on SK-OV-3, with SW-620, in the assay on UACC-257 and in the assay with UACC-62 was > 100 µM (inactive) in each case. In the assay on UO-31, the GI50 was > 100 µM (inactive).

With `CC1(C)OC2CN(C(=O)OCc3ccccc3)C(CO)C2O1` (stereo not drawn), the GI50 with A498 was > 100 µM (inactive); in the assay with A549 it was > 100 µM (inactive); in the assay on BT-549, > 100 µM (inactive); in the assay on CAKI-1, > 100 µM (inactive); in the assay with DU-145 it was > 100 µM (inactive); with HCT-15, over 100 µM. Further, the GI50 with HL-60, with HOP-62, with MCF7, in the assay on MDA-N, in the assay on Malme-3M and in the assay on NCI-H460 was > 100 µM (inactive) in each case. The GI50 in the assay on OVCAR-3, in the assay with SF-268, in the assay on SK-OV-3, in the assay on SW-620, in the assay on UACC-257 and in the assay on UACC-62 was > 100 µM (inactive) each time. For the same compound, the GI50 in the assay with UO-31 is > 100 µM (inactive).

Take `O=C(c1ccc(Cl)cc1)N(C(=S)OC12CC3CC(CC(C3)C1)C2)c1ccccc1`: the GI50 was 64.7 µM (inactive) in the assay on A498; 31.9 µM (inactive) in the assay with A549; 43.2 µM (inactive) in the assay with BT-549; 35.2 µM (inactive) with CAKI-1; 76.4 µM (inactive) in the assay with DU-145; 34.6 µM in the assay on HCT-15. Also, the GI50 in the assay on HL-60 is 17 µM (inactive); with HOP-62 it was 45.5 µM (inactive); in the assay on MCF7, 33.3 µM (inactive); with MDA-N, 49.5 µM (inactive); with Malme-3M, 54.3 µM (inactive); with NCI-H460 it was 30 µM (inactive). The GI50 in the assay with OVCAR-3 is 44.6 µM (inactive); in the assay with SF-268 it was 43.3 µM (inactive); in the assay on SK-OV-3, 53.1 µM (inactive); in the assay with SW-620 it was 34.4 µM (inactive); in the assay with UACC-257, 46.6 µM (inactive); in the assay with UACC-62 it was 40.6 µM (inactive). Further, the GI50 in the assay with UO-31 was 27 µM (inactive).
